Settings: Liquid, Ebulliometric method (Recirculating still)

CC=CCC#N [3-pentenenitrile]
Settings	vapor or sublimation pressure [kPa]
339.24 K	7.588
344.85 K	9.491
353.91 K	13.48
362.45 K	18.32
368.92 K	22.91
375.61 K	28.8
382.01 K	35.37
386.13 K	40.09
388.17 K	42.83
391.42 K	47.08
394.31 K	51.62
398.64 K	57.83
402.51 K	65.49
407.31 K	74.49
409.72 K	80.01
412.88 K	86.78
414.32 K	90.5
417.51 K	97.9

Reference: the NIST ThermoML archive (doi:10.1016/j.jct.2015.08.015)
